Measurements from patent US20120115896A1, “ISOGENIC HUMAN CELL LINES COMPRISING MUTATED CANCER ALLELES AND PROCESS USING THE CELL LINES” (priority 2008, published 2012).
Where “and” joins values, the source holds several entries; their conditions need not be identical. Identical values can stand only once. Like-named read-outs stand apart in the source and are kept apart here.

How the values were obtained:
[1] = tested on: hTERT-HME1 cells carrying KRAS (G13D) KI; assay: Drug assay: cell viability by ATP content (96 h), KI versus parental cells; ΔKI pharmarray analysis
[2] = tested on: hTERT-HME1 DKI cells carrying PIK3CA (H1047R) and EGFR (delE746-A750); assay: Drug assay: cell viability by ATP content (96 h), DKI versus parental cells; ΔKI pharmarray analysis
[3] = tested on: hTERT-HME1 cells carrying BRAF (V600E) KI; assay: Drug assay: cell viability by ATP content (96 h), KI versus parental cells; ΔKI pharmarray analysis; details: for pharmarray: differential response of BRAF mutated cells versus WT: hTERT-HME1, FIG. 5H
[4] = tested on: hTERT-HME1 cells carrying PIK3CA (E545K and H1047R) KI; assay: Drug assay: cell viability by ATP content (96 h) and Hoechst/propidium iodide staining, KI versus parental cells; ΔKI pharmarray analysis
[5] = tested on: hTERT-HME1 cells carrying EGFR (delE746-A750) KI; assay: Drug assay: cell viability by ATP content (CellTiter-Glo, 96 h), KI versus parental cells; ΔKI pharmarray analysis

Tamoxifene Citrate
ΔKI KRAS [1]: 0 | ΔKI KRAS ([1]; Log(M) −4.75): 0 | ΔKI KRAS ([1]; Log(M) −5.35): 0 | ΔKI PIK3CA + EGFR [2]: 0.96 and 0.78 | ΔKI PIK3CA + EGFR ([2]; Log(M) −4.75): 0 | ΔKI PIK3CA + EGFR ([2]; Log(M) −5.35): −0.92 | ΔKI BRAF [3]: 0 | ΔKI BRAF ([3]; Log(M) −4.75): 0 | ΔKI BRAF ([3]; Log(M) −5.35): 0 | ΔKI PIK3CA ([4]; Log(M) −4.75): 0 | ΔKI PIK3CA ([4]; Log(M) −5.35): 0.9 | ΔKI EGFR [5]: 0 | ΔKI EGFR ([5]; Log(M) −4.75): 0 | ΔKI EGFR ([5]; Log(M) −5.35): −0.54

N.N.[Cl][Pt][Cl] [Cisplatin]
ΔKI KRAS ([1]; Log(M) −4.70): 0 | ΔKI KRAS ([1]; Log(M) −5.00): 0 | ΔKI KRAS ([1]; Log(M) −5.70): 0 | ΔKI KRAS ([1]; Log(M) −6.00): 0 | ΔKI KRAS ([1]; Log(M) −6.70): 0 | ΔKI KRAS ([1]; Log(M) −7.00): 0 | ΔKI PIK3CA + EGFR ([2]; Log(M) −4.70): 0 | ΔKI PIK3CA + EGFR ([2]; Log(M) −5.00): 4.9 | ΔKI PIK3CA + EGFR ([2]; Log(M) −5.70): 2.16 | ΔKI PIK3CA + EGFR ([2]; Log(M) −6.00): 0.7 | ΔKI PIK3CA + EGFR ([2]; Log(M) −6.70): 0 | ΔKI PIK3CA + EGFR ([2]; Log(M) −7.00): −1.32 | ΔKI BRAF ([3]; Log(M) −4.70): 3.82 | ΔKI BRAF ([3]; Log(M) −5.00): 0 | ΔKI BRAF ([3]; Log(M) −5.70): 7.62 | ΔKI BRAF ([3]; Log(M) −6.00): 0 | ΔKI BRAF ([3]; Log(M) −6.70): 0 | ΔKI BRAF ([3]; Log(M) −7.00): 0 | ΔKI PIK3CA ([4]; Log(M) −4.70): 0 | ΔKI PIK3CA ([4]; Log(M) −5.00): 0 | ΔKI PIK3CA ([4]; Log(M) −5.70): 0 | ΔKI PIK3CA ([4]; Log(M) −6.00): 0 | ΔKI PIK3CA ([4]; Log(M) −6.70): 0 | ΔKI PIK3CA ([4]; Log(M) −7.00): 0 | ΔKI EGFR ([5]; Log(M) −4.70): 0 | ΔKI EGFR ([5]; Log(M) −5.00): 4.84 | ΔKI EGFR ([5]; Log(M) −5.70): 0 | ΔKI EGFR ([5]; Log(M) −6.00): 0 | ΔKI EGFR ([5]; Log(M) −6.70): 0 | ΔKI EGFR ([5]; Log(M) −7.00): 0

CC(C)c1nc(N(C)S(C)(=O)=O)nc(-c2ccc(F)cc2)c1/C=C/[C@@H](O)C[C@@H](O)CC(=O)O [rosuvastatin, Rosuvastatin Ca]
pharmarray: differential response of BRAF mutated cells versus WT [3]: more resistant

Sunitinib Maleate
ΔKI KRAS ([1]; Log(M) −4.82): 0 | ΔKI KRAS ([1]; Log(M) −5.30): 0 | ΔKI KRAS ([1]; Log(M) −5.78): 0 | ΔKI BRAF ([3]; Log(M) −4.82): 0 | ΔKI BRAF ([3]; Log(M) −5.30): 4.42 | ΔKI BRAF ([3]; Log(M) −5.78): 0

O=C([O-])C[C@H](O)C[C@H](O)/C=C/c1c(C2CC2)nc2ccccc2c1-c1ccc(F)cc1.O=C([O-])C[C@H](O)C[C@H](O)/C=C/c1c(C2CC2)nc2ccccc2c1-c1ccc(F)cc1.[Ca+2] [itavastatin, Itavastatin Ca]
ΔKI KRAS [1]: 0 | ΔKI PIK3CA + EGFR [2]: 0 | ΔKI BRAF [3]: 0 | pharmarray: differential response of BRAF mutated cells versus WT [3]: more resistant | ΔKI BRAF ([3]; listed as OGC-072): −7.2 | ΔKI PIK3CA [4]: 0 | ΔKI EGFR [5]: 0

COc1ccc2c(c1)c(CC(=O)O)c(C)n2C(=O)c1ccc(Cl)cc1 [indomethacin, Indomethacin]
extended analysis of effect on PIK3CA KI versus WT cells (viability, apoptosis) ([4]; hTERT-HME1, 96 h, ATP assay, Hoechst/propidium iodide, FIG. 19): acts preferentially on cells carrying the PIK3CA mutation with both anti-proliferative and pro-apoptotic effects | pharmarray: differential response of PIK3CA mutated cells versus WT ([4]; hTERT-HME1, FIG. 5G): unexpectedly active on PIK3CA mutated cells

CCCn1c(C)c(C(=O)c2cccc3ccccc23)c2ccccc21 [JWH-015]
ΔKI KRAS [1]: 0 | ΔKI KRAS ([1]; Log(M) −3.55): 0 | ΔKI PIK3CA + EGFR [2]: 0 | ΔKI PIK3CA + EGFR ([2]; Log(M) −3.55): 0 | ΔKI BRAF [3]: 0 | ΔKI BRAF ([3]; Log(M) −3.55): 0 | ΔKI PIK3CA [4]: 0 | ΔKI PIK3CA ([4]; Log(M) −3.55): 0 | ΔKI EGFR [5]: 0 | ΔKI EGFR ([5]; Log(M) −3.55): 0

c1cc(-c2cnn3cc(-c4ccc(OCCN5CCCCC5)cc4)cnc23)ccn1 [Compound C]
ΔKI KRAS [1]: 0 | ΔKI KRAS ([1]; Log(M) −4.70): 0 | ΔKI PIK3CA + EGFR [2]: 0 | ΔKI PIK3CA + EGFR ([2]; Log(M) −4.70): 0 | ΔKI BRAF [3]: 0 | ΔKI BRAF ([3]; Log(M) −4.70): 0 | ΔKI PIK3CA [4]: 0 | ΔKI PIK3CA ([4]; Log(M) −4.70): 0 | ΔKI EGFR [5]: 0 | ΔKI EGFR ([5]; Log(M) −4.70): 0

COc1cc2ncnc(Nc3ccc(F)c(Cl)c3)c2cc1OCCCN1CCOCC1 [gefitinib, Gefitinib]
pharmarray: differential response of KRAS mutated cells versus WT ([1]; hTERT-HME1, FIG. 5H): resistant | pharmarray: differential response of BRAF mutated cells versus WT [3]: resistant

CC[C@H](C)C(=O)O[C@H]1C[C@@H](C)C=C2C=C[C@H](C)[C@H](CC[C@@H]3C[C@@H](O)CC(=O)O3)[C@H]21 [lovastatin, Lovastatin]
pharmarray: differential response of BRAF mutated cells versus WT [3]: more resistant
